Experimental data: ChEMBL document CHEMBL5584338, “Design, Synthesis, and Biological Evaluation of 5-Amino-4-fluoro-1H-benzo[d]imidazole-6-carboxamide Derivatives as Novel and Potential MEK/RAF Complex Inhibitors Based on the "Clamp" Strategy” (J Med Chem, 2024)
Calls of active or inactive are those of the source. The calls are words filed in the database; no cut-off is given here.

Legend:
HCT-116 [1] = assay: Antiproliferative activity against human HCT-116 cells harboring KRAS G13D mutant at 1 uM incubated for 72 hrs by CCK8 assay relative to control; assay type: functional
[2] = target: T1, Serine/threonine-protein kinase B-raf (Homo sapiens, UniProt P15056); assay: Inhibition of BRAF (unknown origin)
T1 sequence (P15056 whole entry): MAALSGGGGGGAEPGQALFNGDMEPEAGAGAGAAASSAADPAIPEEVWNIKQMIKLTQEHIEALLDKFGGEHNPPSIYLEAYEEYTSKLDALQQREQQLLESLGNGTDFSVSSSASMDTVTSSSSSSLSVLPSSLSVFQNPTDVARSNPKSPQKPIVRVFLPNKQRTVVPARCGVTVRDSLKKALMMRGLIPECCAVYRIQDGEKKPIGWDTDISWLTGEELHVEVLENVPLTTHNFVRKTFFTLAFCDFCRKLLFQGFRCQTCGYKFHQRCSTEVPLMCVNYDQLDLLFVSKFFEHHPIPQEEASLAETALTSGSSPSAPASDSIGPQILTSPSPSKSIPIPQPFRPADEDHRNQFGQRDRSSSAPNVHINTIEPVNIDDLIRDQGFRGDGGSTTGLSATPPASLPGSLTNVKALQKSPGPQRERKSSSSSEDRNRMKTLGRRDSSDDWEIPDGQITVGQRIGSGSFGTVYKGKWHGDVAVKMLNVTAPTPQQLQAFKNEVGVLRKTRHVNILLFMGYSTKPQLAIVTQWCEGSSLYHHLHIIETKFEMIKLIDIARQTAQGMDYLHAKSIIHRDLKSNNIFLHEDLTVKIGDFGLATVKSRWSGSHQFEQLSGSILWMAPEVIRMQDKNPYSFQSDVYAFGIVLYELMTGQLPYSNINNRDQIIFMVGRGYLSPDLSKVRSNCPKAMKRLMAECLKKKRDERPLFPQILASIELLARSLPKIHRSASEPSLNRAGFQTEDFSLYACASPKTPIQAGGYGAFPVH

[3] = Inhibition of BRAF […] mutant (unknown origin); set-up: species or system Homo sapiens
[4] = Antiproliferative activity against mouse C26 cells harboring KRAS G12D mutant incubated for 72 hrs by CCK8 assay; assay type: functional, cell-based, C-26; details: C26, 72 h
MIA PaCa-2 [5] = assay: Antiproliferative activity against human MIA PaCa-2 cells harboring KRAS G12C mutant incubated for 72 hrs by CCK8 assay; assay type: functional, cell-based; details: MIA PaCa-2, 72 h
[6] = target: T2, Dual specificity mitogen-activated protein kinase kinase 1 (Homo sapiens, UniProt Q02750); assay: Inhibition of MEK1 (unknown origin)
T2 sequence (Q02750 whole entry): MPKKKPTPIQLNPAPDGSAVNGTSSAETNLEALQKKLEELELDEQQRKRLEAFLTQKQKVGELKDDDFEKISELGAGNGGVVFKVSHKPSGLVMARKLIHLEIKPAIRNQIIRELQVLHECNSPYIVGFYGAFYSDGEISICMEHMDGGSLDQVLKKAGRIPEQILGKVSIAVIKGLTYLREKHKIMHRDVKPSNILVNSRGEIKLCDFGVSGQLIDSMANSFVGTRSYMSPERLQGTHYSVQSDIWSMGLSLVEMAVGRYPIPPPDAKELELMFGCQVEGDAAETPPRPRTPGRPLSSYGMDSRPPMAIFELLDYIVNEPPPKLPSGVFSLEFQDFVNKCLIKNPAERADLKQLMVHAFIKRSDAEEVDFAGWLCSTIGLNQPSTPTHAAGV

[7] = target: T2, Dual specificity mitogen-activated protein kinase kinase 1; assay: Inhibition of MEK1 (unknown origin) assessed as remaining activity at 0.1 uM relative to control
[8] = target: T1, Serine/threonine-protein kinase B-raf; assay: Inhibition of BRAF (unknown origin) assessed as remaining activity at 0.1 uM relative to control
[9] = Antiproliferative activity against rat H9c2 cells incubated for 72 hrs by CCK8 assay; assay type: toxicity, cell-based
MIA PaCa-2 [10] = assay: Antiproliferative activity against human MIA PaCa-2 cells harboring KRAS G12C mutant at 0.1 uM incubated for 72 hrs by CCK8 assay relative to control; assay type: functional
HCT-116 [11] = assay: Antiproliferative activity against human HCT-116 cells harboring KRAS G13D mutant incubated for 72 hrs by CCK8 assay; assay type: functional, cell-based; details: HCT-116, 72 h
HeLa = assay: Antiproliferative activity against human HeLa cells incubated for 72 hrs by CCK8 assay; assay type: functional, cell-based
[12] = Stability in human liver microsomes assessed as half life at 200 uM preincubated for 5 mins followed by NADPH addition measured upto 60 mins by LC-MS/MS analysis; assay type: ADME, Microsome; details: time 65 min
[13] = tested on: Mitogen-activated protein kinase 1/3 (ERK1/2) (Homo sapiens); assay: Inhibition of ERK phosphorylation in human MIA PaCa-2 cells upto 1 uM incubated for 4 hrs by Western blot analysis
[14] = target: Dual specificity mitogen-activated protein kinase kinase; MEK1/2 (Homo sapiens) (UniProt P36507+Q02750); assay: Inhibition of MEK phosphorylation in human MIA PaCa-2 cells upto 1 uM incubated for 4 hrs by Western blot analysis; assay type: cell-based
Chain of Dual specificity mitogen-activated protein kinase kinase; MEK1/2 (Homo sapiens) (P36507 whole entry, looked up): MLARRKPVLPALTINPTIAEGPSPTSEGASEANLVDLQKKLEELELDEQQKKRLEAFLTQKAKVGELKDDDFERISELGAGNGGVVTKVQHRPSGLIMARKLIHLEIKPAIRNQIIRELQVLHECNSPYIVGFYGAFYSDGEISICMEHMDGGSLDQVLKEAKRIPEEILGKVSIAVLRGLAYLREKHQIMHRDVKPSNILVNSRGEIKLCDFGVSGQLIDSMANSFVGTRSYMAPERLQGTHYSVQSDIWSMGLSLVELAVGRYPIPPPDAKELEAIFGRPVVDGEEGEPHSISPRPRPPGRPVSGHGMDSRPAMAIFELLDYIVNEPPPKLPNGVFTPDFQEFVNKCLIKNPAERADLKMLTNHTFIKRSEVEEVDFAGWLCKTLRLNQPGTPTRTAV
Chain of Dual specificity mitogen-activated protein kinase kinase; MEK1/2 (Homo sapiens) (Q02750 whole entry, looked up): as the sequence (Q02750 whole entry) above

IC50 [2] [nM] | IC50 [3] [nM] | IC50 (MIA PaCa-2 [5]) [nM] | IC50 [6] [nM] | Activity [7] [%] | Activity [8] [%] | IC50 (HCT-116 [11]) [nM] | IC50 (HeLa) [nM] | half-life at 200 µM [12] [min] | inhibition [13] | inhibition [14] | Structure (SMILES) | inhibition at 1 µM (HCT-116 [1]) [%] | IC50 [4] [nM] | IC50 at 72 h [9] [nM] | inhibition at 0.1 µM (MIA PaCa-2 [10]) [%]
5 | 16 | 114 | 119 | 58 | 5 | 223 | > 10000 | – | – | – | CNS(=O)(=O)Nc1cccc(Cn2cnc3c(F)c(Nc4ccc(C5CC5)cc4F)c(C(=O)NOCCO)cc32)c1 | 52.8 | 152 | > 50000 | 53.1
7 | 8 | 23 | 74 | 46 | 0 | 123 | > 10000 | 47.5 | Active | – | CCNS(=O)(=O)Nc1cccc(Cn2cnc3c(F)c(Nc4ccc(C5CC5)cc4F)c(C(=O)NOCCO)cc32)c1 | 60.4 | 226 | > 50000 | 78.8
4 | 5 | 15 | 42 | 40 | -4 | 183 | > 10000 | 37.7 | Active | Active | CNS(=O)(=O)Nc1cccc(Cn2cnc3c(F)c(Nc4ccc(C5CC5)cc4F)c(C(=O)NOCCO)cc32)c1F | 61.2 | 56 | > 50000 | 75.9
